Consider four compounds from US12285397B2, “Use of (s)-3-amino-4-(difluoromethylenyl) cyclopent-1-ene-1-carboxylic acid and related compounds, (1S,3S)-3-amino-4-(difluoromethylidene) cyclopentane-1-carboxylic acid and vigabatrin in the treatment of developmental disorders” (Ovid Therapeutics Inc., priority 2018, dated 2025).

The conditions of data set [1]: cited from earlier work; for tmax: single 37-50 mg/kg dose of an oral solution.
The test system of another data set is Fmr1 KO2 mice. As to the kind of experiment: Open field hyperactivity (locomotor activity), Fmr1 KO2 mice. The format is in vivo, mouse. The conditions noted are these: 0.1 mg/Kg. The source says:
(§1) Mutant fmr1 knockout (KO) mice recapitulate the Fragile X syndrome (FXS) phenotype and represent a preclinical model for assessment of putative drug treatments. In this study three different mice models of FXS were used: Fmr1 KO1 is the original Fmr1 knockout animal that carries an insertion in exon 5. See, e.g., Bakker C E, et al., The Dutch-Belgian Fragile X Consortium, Fmr1 knockout mice: A model to study fragile X mental retardation. Cell. 1994; 78:23-33 It is a protein null, although Fmr1 mRNA is still present. It is backcrossed to the C57/B16 strain. Subsequently, these mice were bred into different background strains, such as the FVB inbred mouse strain. Fmr1 KO2 is a null allele at Fmr1 generated by deletion of the promoter and first exon of Fmr1. See, Mientjes, E J et al., The generation of a conditional Fmr1 knock out mouse model to study Fmrp function in vivo. Neurobiology of Disease (2006) 21(3): 549-555. It is both protein and mRNA null. Backcrossed to the C57/B16 strain. Genotyping was accomplished using TransnetXY Automated Genotyping (http://www.transnetyx.com/). TRANSNETYX, INC., 8110 Cordova Rd. Suite 119, Cordova, TN 38016, USA.
(§2) The mice were housed in plastic cages (35×30×12 cm), 5 in each and habituated to the animal facilities for at least a week before test. The room temperature (21±2° C.), relative humidity (55±5%), a 12-h light-dark cycle (lights on 7 a.m.-7 p.m.) and air exchange (16 times per h) were automatically controlled. The animals had free access to commercial food pellets and water. Testing was conducted during the light phase. Testing was conducted on Fmr1 knockout mice and their wild-type (WT) littermates. Ten mice per treatment group, 14 weeks of age, were used for behavioral experiments. Experiments were conducted in line with the requirements of the UK Animals (Scientific Procedures) Act, 1986.
(§3) Oral dosing was performed by using 1.5-in. curved, 20-gauge, stainless steel feeding needles with a 2.25-mm ball (Braintree Scientific, Braintree, MA). Each gavage treatment was given in 0.5% methyl cellulose (Methyl Cellulose M0512, Sigma-Aldrich, St Louis, MO) used as vehicle with or without treatment compounds. The same veterinarian, blinded to the treatment groups, performed the procedure, and documented animal reactions to oral gavage. Reactions considered to indicate stress were defined as excessive struggling during gavage or abnormal behavior after gavage (labored breathing, frozen stance, exaggerated jumping, shuddering, and hunched posture).
(§4) For experiments all mice were tested once in the same apparatus. Prior to testing, mice not in the study were placed in the apparatus for some minutes before the experiment. The apparatus was then cleaned with moist and dry tissues before testing each mouse. The aim was to create a low but constant background mouse odor for all experimental subjects. All experiments were conducted with the experimenters blind to genotype and drug treatment during all testing and data analysis. Separate investigators prepared and coded dosing solutions, allocated the mice to the study treatment groups, dosed the animals, and collected the behavioral data. Data were analyzed by one-way analysis of variance (ANOVA) followed by post-hoc comparisons where appropriate using Tukey's Multiple Comparison Test. Data are represented as the mean and standard error of the mean (SEM).
1. […]

In a further data set the test system is Fmr1 KO1 mice. In words: Open field hyperactivity (locomotor activity), Fmr1 KO1 mice. It counts as in vivo, mouse. As to conditions: 0.1 mg/Kg.
Excerpt: as §1, §2, §3, §4
1. […]

The conditions of data set [2]: cited from earlier work.
Data set [3] has as its system Fmr1 KO1 transgenic mice in an FVB background. As to the kind of experiment: Audiogenic seizures (AGS), Fmr1 KO1 mice in FVB background. It counts as in vivo, mouse. The conditions noted are these: tested 20 minutes after injection, audio stimulus 60 seconds at 124 db. How it is done: 4. Audiogenic Seizures (AGS) are reflex seizures generated by loud noises in genetically predisposed mice. The Fmr1 KO1 mice display audiogenic seizures depending on age and background strain, the Fmr1 KO1 mouse on the FVB background is characterized by an increased AGS susceptibility at all ages and is considered a good animal model for epilepsy. The effect of (S)-3-amino-4-(difluoromethylenyl) cyclopent-1-ene-1-carboxylic acid was tested on AGS Fmr1 KO1 transgenic mice in an FVB background. Observable criteria are: 1. normal behavior, 2. wild running, 3. seizure, and 4. respiratory arrest.
(S)-3-amino-4-(difluoromethylenyl) cyclopent-1-ene-1-carboxylic acid was administered to Fmr1 KO1 mice, males, age 2 months in the following amounts: 0.01 mg/kg, 0.05 mg/kg, and 0.1 mg/kg. Positive controls were administered 2-Methyl-6-(phenylethynyl)pyridine (MPEP), a mGluR5 antagonist, 30 mg/kg by i.p. and tested 20 minutes after injection. Audio stimulus was administered continuously for 60 seconds at 124 db.

Where [4] appears, read: MPEP (positive control) 30 mg/kg i.p.

Like-named read-outs stand apart in the source and are kept apart here.

As to `C=CC(N)CCC(=O)O` (racemic) [vigabatrin, (RS)-4-aminohex-5-enoic acid], the “cerebrospinal concentrations as share of the plasma concentration” value in data set [1] (6 h after a single oral dose) is 10%. The terminal half-life in data set [1] (adults) was approximately 10.5 h; in data set [1] (children (10 years-16 years)) it was approximately 9.5 h; in data set [1] (infants (5 months-2 years)), “about 5.7 hours”. Besides, the “area under plasma concentration-time curves versus dose” value in data set [1] (in vivo) is reported as “dose-linear pharmacokinetics”. In addition, in data set [1] (in vivo), the protein binding entry is “lack of protein binding”. Also, the tmax entry is on record as “about 1 hour” in data set [1] (children); “approximately 2.5 hours” in data set [1] (neonates and infants).
As for `N[C@H]1C=C(C(=O)O)CC1=C(F)F` [(S)-3-amino-4-(difluoromethylenyl)cyclopent-1-ene-1-carboxylic acid], the “Effect on open field hyperactivity (FIG. 1)” value in the data set on Fmr1 KO2 mice is given as “significantly reduced”. Moreover, in the data set on Fmr1 KO1 mice, the “Effect on open field hyperactivity (FIG. 7)” value is given as “reversed hyperactivity”.
For `N[C@H]1C[C@@H](C(=O)O)CC1=C(F)F` [(1S,3S)-3-amino-4-(difluoromethylidene)cyclopentane-1-carboxylic acid], the “increase in AUCs with dose” value in data set [2] (in the dose range 5 mg-500 mg) is given as “greater than proportional increase”. Besides, the “Cmax increase with dose” value in data set [2] (over a range of 5 mg-500 mg) is given as “dose proportional”.
On to `Cc1cccc(C#Cc2ccccc2)n1` [MPEP, 2-Methyl-6-(phenylethynyl)pyridine, reference compound], for which, in data set [3] (30 mg/kg i.p.), the Seizure was 0/10 and the Wild running is listed as 0/10. Further, in data set [3] (setting [4]), the Incidence is 0% and the Respiratory arrest is 0/10.
